Measured values as given in patent publication US9212210B2, “Akt activity specifically inhibiting polypeptide” (Japan Science and Technology Agency, priority 2003, dated 2015).

Tests used:
[1] = system: Akt kinase; assay: Binding test by co-immunoprecipitation assay; settings: lysate of human 293 cells overexpressing AKT kinase, incubated around 2 hours, western blotting
Procedure: In this method, AKT kinase was overexpressed in human 293 cells, and the harvested cell lysates was incubated with 10/24 peptide (NH2-AVTDHPDRLWAWEKF-COOH) (SEQ ID NO: 1) for around 2 hours. Further, the treated cell lysates were added agarose beads bound to the specific antibody against an epitope that was fused with Akt, and co-incubated for 2-3 hours. Then, molecules adhered in the cell lysates were immunoprecipitated with agarose beads bound to this antibody, and examined the binding to Akt kinase by using western blotting with specific antibody.

[2] = system: Mouse QrSP-11 fibrosarcoma cells transplanted to C57BL/6 mouse; assay: In vivo anti-tumor effect on transplanted tumor cells; settings: injected directly into tumor, 2 μM 3 times a week per mouse, versus control peptide
Procedure: In vivo anti-tumor effect by 10/24 peptide with the use of the transplanted tumor cells was examined.
Mouse QrSP-11 fibrosarcoma cells was transplanted to abdominal wall of C57BL/6 mouse, and examined the inhibition ? effect on tumor growth by peptide. 10/24 peptide or control peptide was injected directly into tumor cells (2 μM was administered 3 times a week for each mouse, shown by arrows in the figure), the tumor diameters were measured and the volumes were calculated.

[3] = system: Mouse QrSP-11 fibrosarcoma tumors of example 8; assay: Histological examination of peptide treated mouse tumor; format: in vivo
From the text: Experimental mouse tumors of example 8 were harvested on the day 9, and histologically examined by macroscopic appearance, hematoxylin-eosin (H&E) staining (an observing method for conditions of cell nucleus and the like), TUNEL (Tdt-mediated dUTP nick end labeling, #MK500, Takara) immunostaining (a histologically identifying method for the way of the atypical death of carcinoma i.e., apoptosis), and phospho Akt (Ser 473) monoclonal antibody (a method for determining 587F11, Cell Signaling, phosphorylation of AKT kinase, and observing the activation).

[4] = molecular target: T1, Akt3 (Homo sapiens, UniProt Q9Y243); assay: Co-immunoprecipitation binding test with Akt subtype Akt3; settings: 293 cell lysate, peptide at 400 μM, anti Flag M2 immunoprecipitation, western blotting
T1 construct: expressed in transfected cells; host or cells: 293 cells (ATCC), calcium phosphate transfection, pCMV6 vector
Procedure: (§1) Binding test between 10/24 peptide and Akt subtype molecule: Akt1, Akt2, or Akt3, was performed by using co-immunoprecipitation assay.
(§2) The cell lysate overexpressed Akt kinase in 293 cells (ATCC) i.e., Akt1, Akt2 or Akt3 in pCMV6 was expressed in 293 cells (ATCC) by using calcium phosphate method, and the overexpressed cells were harvested, lysed, and pre-treated with Protein G/A agarose mixture (50% v/v, ProG/A, Pharmacia). Akt or a control peptide (βC) was added to the cell lysate at 400 μM, inoculated with ProG/A for 3 hours at 4° C., and was added anti Flag M2 antibody (Sigma). The resultant immune precipitant was washed, and then were identified the binding to Akt kinase by western blotting (anti-HA antibody, 3F10, Boehringer Mannheim). As shown in the figure, the 10/24 peptide bound to any of the three subtypes of molecules, Akt1, Akt2, and Akt3.

[5] = system: Akt1; assay: Co-immunoprecipitation binding test with Akt subtype Akt1; settings: 293 cell lysate, peptide at 400 μM, anti Flag M2 immunoprecipitation, western blotting
Procedure: as §1, §2

[6] = system: T4 cell lines; assay: Cell growth test by MTT (WST-8 reagent) assay; format: cell-based, human; settings: T4 cell lines without stimulation, 0-50 μM, 48 hours, WST-8, absorbance at 450 nm
Procedure: Cell growth test was performed by using MTT assay. That is, in experiments of cell growth by using WST-8 reagent [2-(2-methoxy-4-nitrophenyl)-3-(4-nitrophenyl)-5-(2,4-disulfophenyl)-2H-tetrazolium, monosodium salt]
In this method, 10/24 peptide was pre-treated at 0-50 μM concentration in cell growth test by using T4 cell lines without stimulation, 48 hours later the growth potency was measured by using WST-8 reagent assay, the absorbance at 450 nm was measured by ELISA using a microplate reader (Model 550; BioRad, Tokyo, Japan).

[7] = system: Akt in mouse QrSP-11 fibrosarcoma cells; assay: Inhibition of Akt phosphorylation activation in PDGF-stimulated QrSP-11 cells (western blotting); format: cell-based; settings: 50 mM peptide for 16 hours, PDGF stimulation
Procedure: Inhibition effect on Akt activation of AKT phosphorylation (serine 473 residue, threonine 308 residue) of 10/24 peptide and control peptide in mouse QrSP-11 fibrosarcoma cells were examined.
QrSP-11 cells were mixed with 50 mM concentrations of peptide for 16 hours. Then the mixture was stimulated with PDGF (PDGF-AB, Sigma, 3226). The cells were lysed in the presence of phosphatase inhibitor, analyzed on SDS gels, and western blotting was performed by ECL (Amersham) with the use of various antibodies (Cell Signaling; anti-Akt #9272, anti-pThr 308 #9275L, and anti-pSer 473 #9271L). As shown in the figure, in the 10/24 peptide treated cells, phosphorylations of both serine 473 and threonine 308 were inhibited as shown at the right in the figure. That is, phosphorylation inhibition caused by 10/24 peptide was indicated by diluting the black bands at the right compared to the second and forth rows from the left in the figure.

[8] = molecular target: Akt2 (Homo sapiens, UniProt P31751); assay: Co-immunoprecipitation binding test with Akt subtype Akt2; design: expressed in transfected cells; host or cells: 293 cells (ATCC), calcium phosphate transfection, pCMV6 vector; settings: 293 cell lysate, peptide at 400 μM, anti Flag M2 immunoprecipitation, western blotting
Procedure: as §1, §2

[9] = system: human T cell leukemia cells (T4); assay: Apoptosis of T4 cells by propidium iodide staining and FACS; format: cell-based
Procedure: The effect on apoptosis of 10/24 peptide was examined with the use of human T cell leukemia cells (T4).
10/24 peptide (NH2-AVTDHPDRLWAWEKF-COOH) (SEQ ID NO: 1) was pre-treated at 0-30 μM concentrations with the use of T4 cell lines without stimulation, 48 hours later stained with propidium iodide, and the apoptosis was determined by FACS (Beckton Dickinson). Further, to identify the AKT dependency of the anti-tumor effect, myr-AKT (constitutively activated AKT) was overexpressed.

Sequence of Akt2 (P31751 whole entry): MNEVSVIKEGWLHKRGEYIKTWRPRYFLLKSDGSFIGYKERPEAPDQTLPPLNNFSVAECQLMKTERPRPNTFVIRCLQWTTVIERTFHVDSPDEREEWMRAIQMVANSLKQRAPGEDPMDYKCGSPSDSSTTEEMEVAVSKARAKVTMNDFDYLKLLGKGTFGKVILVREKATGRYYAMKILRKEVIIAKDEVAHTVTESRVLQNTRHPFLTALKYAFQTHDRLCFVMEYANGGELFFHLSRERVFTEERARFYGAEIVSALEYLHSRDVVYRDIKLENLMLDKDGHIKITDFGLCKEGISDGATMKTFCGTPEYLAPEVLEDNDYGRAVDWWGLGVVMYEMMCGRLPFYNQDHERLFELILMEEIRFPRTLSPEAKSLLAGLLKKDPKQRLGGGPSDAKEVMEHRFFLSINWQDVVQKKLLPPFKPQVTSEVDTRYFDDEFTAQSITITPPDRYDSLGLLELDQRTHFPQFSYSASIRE
T1 sequence (Q9Y243 whole entry, species assumed): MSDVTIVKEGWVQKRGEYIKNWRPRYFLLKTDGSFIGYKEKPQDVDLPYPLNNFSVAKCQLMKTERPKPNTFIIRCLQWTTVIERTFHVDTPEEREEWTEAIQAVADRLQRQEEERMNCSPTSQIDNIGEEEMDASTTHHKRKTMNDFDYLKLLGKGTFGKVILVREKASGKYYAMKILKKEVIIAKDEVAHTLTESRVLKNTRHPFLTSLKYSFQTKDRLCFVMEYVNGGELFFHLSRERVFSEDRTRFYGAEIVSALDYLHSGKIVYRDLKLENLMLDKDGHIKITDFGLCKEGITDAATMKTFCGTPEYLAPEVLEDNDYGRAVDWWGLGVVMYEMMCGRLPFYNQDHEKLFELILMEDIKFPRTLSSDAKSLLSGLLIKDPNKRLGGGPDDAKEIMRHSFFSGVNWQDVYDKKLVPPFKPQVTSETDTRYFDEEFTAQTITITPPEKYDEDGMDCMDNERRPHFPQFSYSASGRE

“NH2-AVTDHPDRLWAWEKF-COOH (H-AVTDHPDRLWAWEKF-OH; listed as Homo sapiens) [10/24 peptide, amino acid residue 10-24 of human TCL1]” was tested, and the “binding to Akt kinase” value [1] was “specifically binds”, the “tumor growth (tumor volume)” value [2] was “tumor growth was effectively inhibited” and the “Akt activation (phospho Akt Ser 473 staining)” value ([3]; tumors harvested on day 9) was “inhibition of Akt activation”. For the same substance, the “apoptosis by H&E staining” value ([3]; tumors harvested on day 9) was “increased apoptosis”, the “cell apoptosis by TUNEL staining” value ([3]; tumors harvested on day 9) was “increased cell apoptosis” and the “tumor size by macroscopic appearance” value ([3]; tumors harvested on day 9, compared to the control) was “reduction in tumor size was clearly observed”. For the same substance, the “binding to Akt3” value [4] was “bound”, the “binding to Akt1” value [5] was “bound” and the “cell growth associated with AKT activation” value [6] was “specifically inhibits cell growth”. For the same substance, the “phosphorylation of Akt serine 473” value [7] was “inhibited”, the “phosphorylation of Akt threonine 308” value [7] was “inhibited” and the “binding to Akt2” value [8] was “bound”. The apoptosis ([9]; T4 cell lines without stimulation, 0-30 μM, 48 hours, compared with control peptide) was “enhance apoptosis” and the “apoptosis with myr-AKT (constitutively activated AKT) overexpression” value ([9]; T4 cells, AKT dependency of the effect) was “apoptosis was inhibited”.
